These are literature values, as cited in patent publication US5281421A, “Gemfibrozil formulations” (Warner-Lambert Company, priority 1992, dated 1994).

For this data set the following is noted: particularly in a highly acidic medium.

For `Cc1ccc(C)c(OCCCC(C)(C)C(=O)O)c1` [Gemfibrozil, 5-(2,5-dimethylphenoxy)-2,2-dimethylpentanoic acid], the solubility in water entry is “very poor solubility in water”.
